ChEMBL document CHEMBL4665650, “Towards a TREK-1/2 (TWIK-Related K+ Channel 1 and 2) dual activator tool compound: Multi-dimensional optimization of BL-1249” (Bioorg Med Chem Lett, 2019)

Legend:
[1] = target: T1, Potassium channel subfamily K member 10 (Homo sapiens) (UniProt P57789); experiment: Activation of human TREK2 at 30 uM by thallium flux mobilization assay relative to control
T1 sequence (whole entry): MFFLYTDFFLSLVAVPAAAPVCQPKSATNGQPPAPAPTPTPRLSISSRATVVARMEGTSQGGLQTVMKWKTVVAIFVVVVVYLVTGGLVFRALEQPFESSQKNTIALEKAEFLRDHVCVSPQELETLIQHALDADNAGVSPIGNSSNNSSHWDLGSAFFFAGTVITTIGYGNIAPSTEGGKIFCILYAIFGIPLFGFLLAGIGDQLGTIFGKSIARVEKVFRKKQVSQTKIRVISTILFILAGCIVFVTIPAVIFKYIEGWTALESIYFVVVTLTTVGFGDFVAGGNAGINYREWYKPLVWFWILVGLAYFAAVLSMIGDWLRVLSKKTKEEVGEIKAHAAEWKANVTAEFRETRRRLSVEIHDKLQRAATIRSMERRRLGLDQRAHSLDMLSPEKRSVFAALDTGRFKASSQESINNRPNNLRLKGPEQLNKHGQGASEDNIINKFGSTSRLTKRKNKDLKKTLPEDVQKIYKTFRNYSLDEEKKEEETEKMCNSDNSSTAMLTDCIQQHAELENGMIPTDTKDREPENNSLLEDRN

[2] = target: T2, Potassium channel subfamily K member 2 (Homo sapiens) (UniProt O95069); experiment: Activation of human TREK1 at 30 uM by thallium flux mobilization assay relative to control
T2 sequence (whole entry): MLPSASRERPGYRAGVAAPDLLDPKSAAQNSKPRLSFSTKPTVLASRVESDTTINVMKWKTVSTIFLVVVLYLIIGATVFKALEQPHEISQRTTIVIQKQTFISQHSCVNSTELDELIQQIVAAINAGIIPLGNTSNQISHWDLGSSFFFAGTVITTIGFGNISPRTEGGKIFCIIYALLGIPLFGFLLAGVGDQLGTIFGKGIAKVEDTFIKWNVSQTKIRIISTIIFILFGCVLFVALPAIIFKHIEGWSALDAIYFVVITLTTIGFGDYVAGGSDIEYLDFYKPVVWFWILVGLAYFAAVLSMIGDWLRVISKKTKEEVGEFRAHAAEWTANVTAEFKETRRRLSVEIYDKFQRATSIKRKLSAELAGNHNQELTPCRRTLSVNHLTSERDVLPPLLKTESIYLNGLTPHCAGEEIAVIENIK

[3] = target: T3, Potassium channel subfamily K member 10 (Homo sapiens, UniProt P57789); experiment: Activation of human TREK2 by thallium flux mobilization assay
T3 sequence (P57789 whole entry): T1 sequence (whole entry)

[4] = target: T4, Potassium channel subfamily K member 2 (Homo sapiens, UniProt O95069); experiment: Activation of human TREK1 by thallium flux mobilization assay
T4 sequence (O95069 whole entry): T2 sequence (whole entry)

[5] = Fraction unbound in human plasma; format: ADME, cell-free
[6] = Fraction unbound in mouse plasma; format: ADME, cell-free
[7] = Fraction unbound in rat plasma; format: ADME, cell-free
[8] = target: T2, Potassium channel subfamily K member 2 (Homo sapiens); experiment: Activation of human TREK1 at 10 uM by thallium flux mobilization assay relative to control
[9] = target: T1, Potassium channel subfamily K member 10 (Homo sapiens); experiment: Activation of human TREK2 at 10 uM by thallium flux mobilization assay relative to control

Row | SMILES | Activity [1] [%] | Activity [2] [%] | EC50 [3] [µM] | Activity ([2]; filed as activator) [%] | EC50 [4] [µM] | other results
1 | O=C(Nc1ccoc1C(=O)O)c1ccc(SC(F)(F)F)cc1 | 5 | 8 |  |  |  | 
2 | O=C(Nc1ccc(Cl)cc1C(=O)O)c1ccc(SC(F)(F)F)cc1 |  |  | 6.8 | 69 | 3.8 | Activity ([1]; filed as activator): 76%
3 | O=C(O)c1ccccc1NC(=O)c1ccccc1C(F)(F)F | -3 | 1 |  |  |  | 
4 | O=C(Nc1ncccc1C(=O)O)c1ccc(SC(F)(F)F)cc1 | 1 | -4 |  |  |  | 
5 | O=C(Nc1ccccc1C(=O)O)c1ccc(C(F)(F)F)cc1 | 12 | 28 |  |  |  | 
6 | O=C(Nc1ccccc1C(=O)O)c1cccc(C(F)(F)F)c1 | 12 | 28 |  |  |  | 
7 | O=C(O)Cc1cccc(NC(=O)c2cccc(C(F)(F)F)c2)c1 | 1 | -1 |  |  |  | 
8 | O=C(Nc1ncncc1C(=O)O)c1ccc(SC(F)(F)F)cc1 | 0 | -4 |  |  |  | 
9 | O=C(Nc1cc(Br)ccc1C(=O)O)c1ccc(SC(F)(F)F)cc1 |  |  | 5.9 | 76 | 4.3 | Activity ([1]; filed as activator): 74%
10 | O=C(O)Cc1cccc(NC(=O)c2ccccc2C(F)(F)F)c1 | 0 | 2 |  |  |  | 
11 | O=C(Nc1ccccc1C(=O)O)c1ccc(SC(F)(F)F)cc1 | 17 |  | 5 | 50 | 12.8 | fraction unbound [5]: 0.026; fraction unbound [6]: 0.081; fraction unbound [7]: 0.04
12 | O=C(Nc1nccnc1C(=O)O)c1ccc(SC(F)(F)F)cc1 | 0 | -6 |  |  |  | 
13 | O=C(O)Cc1ccccc1NC(=O)c1ccccc1C(F)(F)F | -1 | 4 |  |  |  | 
14 | O=C(Nc1ccc2c(c1)CCCC2)c1ccccc1-c1nnn[nH]1 |  |  |  |  |  | Activity [8]: 0%; Activity [9]: 1%
15 | O=C(O)Cc1cccc(NC(=O)c2ccc(C(F)(F)F)cc2)c1 | -1 | 0 |  |  |  | 
16 | O=C(Nc1sccc1C(=O)O)c1ccc(SC(F)(F)F)cc1 | 28 |  | > 30 | 58 | > 30 | 
17 | O=C(O)Cc1ccccc1NC(=O)c1ccc(C(F)(F)F)cc1 | 0 | -6 |  |  |  | 
18 | COc1ccc(C(=O)O)c(NC(=O)c2ccc(SC(F)(F)F)cc2)c1 | 27 |  | 28.5 | 52 | 16.5 | 

Row | SMILES | Activity [1] [%] | Activity [2] [%] | EC50 [3] [µM] | Activity ([2]; filed as activator) [%] | EC50 [4] [µM] | other results
19 | O=C(O)Cc1ccccc1NC(=O)c1cccc(C(F)(F)F)c1 | 2 | 5 |  |  |  | 
20 | Cc1sc(NC(=O)c2ccc(SC(F)(F)F)cc2)c(C(=O)O)c1C | 12 | 31 | < 3.6 |  | < 3.1 | 
21 | O=C(O)c1cccc(NC(=O)c2cccc(C(F)(F)F)c2)c1 | -3 | -10 |  |  |  | 
22 | O=C(Nc1ccc(F)cc1C(=O)O)c1ccc(SC(F)(F)F)cc1 |  |  | > 30 | 54 | 9.5 | Activity ([1]; filed as activator): 43%
23 | O=C(O)c1cccc(NC(=O)c2ccccc2C(F)(F)F)c1 | -1 | -14 |  |  |  | 
24 | O=C(Nc1cnncc1C(=O)O)c1ccc(SC(F)(F)F)cc1 | 1 | 1 |  |  |  | 
25 | O=C(Nc1ccccc1-c1nnn[nH]1)c1cccc2c1CCCC2 |  |  |  |  |  | Activity [8]: 6%; Activity [9]: 2%
26 | O=C(Nc1sc(-c2ccccc2)cc1C(=O)O)c1ccc(SC(F)(F)F)cc1 |  |  | > 30 | 83 | 22.4 | Activity ([1]; filed as activator): 49%
27 | O=C(Nc1cc(Cl)ccc1C(=O)O)c1ccc(SC(F)(F)F)cc1 |  |  | 7.5 | 66 | 4.4 | Activity ([1]; filed as activator): 73%
28 | O=C(Nc1ccccc1C(=O)O)c1cccc(SC(F)(F)F)c1 | 17 | 40 |  |  |  | 
29 | O=C(Nc1ccccc1-c1nnn[nH]1)c1ccc2c(c1)CCCC2 |  |  |  |  | 13.1 | Activity [8]: 24%; Activity [9]: 21%
30 | O=C(Nc1ccc(Br)cc1C(=O)O)c1ccc(SC(F)(F)F)cc1 |  |  | 7.7 | 114 | 5.9 | fraction unbound [5]: 0.003; Activity ([1]; filed as activator): 101%; fraction unbound [6]: 0.029; fraction unbound [7]: 0.013
31 | O=C(O)c1cccc(NC(=O)c2ccc(C(F)(F)F)cc2)c1 | 0 | -11 |  |  |  | 
32 | O=C(Nc1ccc(OC(F)(F)F)cc1C(=O)O)c1ccc(SC(F)(F)F)cc1 |  |  | 5.6 | 57 | 4.6 | Activity ([1]; filed as activator): 60%
33 | O=C(Nc1cccc2c1CCCC2)c1ccccc1-c1nnn[nH]1 |  |  |  |  |  | Activity [8]: 0%; Activity [9]: 1%
34 | O=C(Nc1ccc([N+](=O)[O-])cc1C(=O)O)c1ccc(SC(F)(F)F)cc1 |  |  | 26.5 | 56 | 13.7 | Activity ([1]; filed as activator): 65%
35 | COc1ccc(NC(=O)c2ccc(SC(F)(F)F)cc2)c(C(=O)O)c1 | 31 |  | > 30 | 50 | 20.2 | 
